Data set [1] deals with Acetylcholinesterase (Electrophorus electricus) (UniProt O42275). The data set can be described thus: Mixed type inhibition of electric eel AChE using acetylthiocholine iodide as substrate pre-incubated for 30 mins followed by substrate addition and measured after 5 mins by DTNB reagent based Ellman's method. The settings on record: dose 0-0.4 µM, time 35.0 min. A general note: DTNB colorimetry detects thiols as they appear.

For data set [2], the system named is BV-2. As to the kind of experiment: Anti-neuroinflammatory activity against LPS-induced mouse BV-2 cells assessed as decrease in iNOS protein expression pre-incubated for 1 hr followed by LPS addition and measured after 24 hrs by Western blotting analysis. The class given is functional, cell-based. Particulars: dose 1-10 µM, time 25.0 hrs.
The nature of data set [3]: Hepatotoxicity in human HepG2 cells assessed as reduction in cell viability at 20 to 100 uM incubated for 24 hrs by MTT assay. The class given is toxicity, cell-based. Particulars: hepg2, 24 h, dose 20-100 µM. A general note: Formazan colour is commonly taken as a measure of viable cells.
Data set [4] can be described thus: Acute toxicity in C57BL mouse assessed as lung damage upto 2000 mg/kg, po administered as single dose and measured after 2 weeks by hematoxylin and eosin staining based analysis. Particulars: in vivo, 336 h. In kind it is organism-based.
Data set [5] has as its target T1, Acetylcholinesterase (Electrophorus electricus, UniProt O42275). As to the kind of experiment: Inhibition of electric eel AChE using acetylthiocholine iodide as substrate pre-incubated for 30 mins followed by substrate addition and measured after 5 mins by DTNB reagent based Ellman's method.
The nature of data set [6]: Metal chelating activity assessed as Cu2+-compound complex formation by measuring drop in intensity of absorption curve at 50 uM incubated for 1 hr in presence of CuCl2 by UV-Visible spectrophotometry.
A short description of data set [7]: Acute toxicity in C57BL mouse assessed as heart damage upto 2000 mg/kg, po administered as single dose and measured after 2 weeks by hematoxylin and eosin staining based analysis. The class given is organism-based. Particulars: in vivo, 336 h.
Data set [8] deals with BV-2. The data set can be described thus: Anti-neuroinflammatory activity against LPS-induced mouse BV-2 cells assessed as inhibition of TNF-alpha production pre-incubated for 1 hr followed by LPS addition and measured after 24 hrs by ELISA. In kind it is functional, cell-based. In general terms: ELISA stands for enzyme-linked immunosorbent assay.
Data set [9] concerns the target Cholinesterase (Equus caballus, UniProt P81908). The data set can be described thus: Inhibition of equine serum BuChE using S-butyrylthiocholine iodide as substrate pre-incubated for 30 mins followed by substrate addition and measured after 5 mins by DTNB reagent based Ellman's method.
Data set [10] deals with BV-2. The data set can be described thus: Anti-neuroinflammatory activity against LPS-induced mouse BV-2 cells assessed as inhibition of NO production pre-incubated for 1 hr followed by LPS addition and measured after 24 hrs by Griess reagent based assay. The class given is functional, cell-based.
The test system of data set [11] is Mus musculus. The data set can be described thus: Antialzheimer activity in scopolamine-induced C57BL mouse model assessed as effect on swimming speed at 10 to 30 mg/kg, po administered for 7 days followed by scopolamine administration and measured after 4 days by Morris water maze test. In kind it is functional, organism-based. Particulars: dose 10-30 mg/kg, time 11.0 day.

In data set [12] the test system is BV-2. As to the kind of experiment: Cytotoxicity against mouse BV-2 cells assessed as reduction in cell viability at 20 to 50 uM incubated for 24 hrs by MTT assay. The class given is toxicity, cell-based. Particulars: bv-2, 24 h, dose 20-50 µM.
For data set [13], the system named is Mus musculus. As to the kind of experiment: Antialzheimer activity in scopolamine-induced C57BL mouse model assessed as prevention of irregular cellular arrangements in cortical cells of hippocampal region at 10 to 30 mg/kg, po administered for 7 days followed by scopolamine administration by hematoxylin and eosin staining based analysis. In kind it is functional, organism-based. Particulars: dose 10-30 mg/kg.

In data set [14] the target is T1, Acetylcholinesterase. The data set can be described thus: Inhibition of electric eel AChE assessed as dissociation constant using acetylthiocholine iodide as substrate pre-incubated for 30 mins followed by substrate addition and measured after 5 mins by DTNB reagent based Ellman's method.
The subject of data set [15] is Mus musculus. The data set can be described thus: Antialzheimer activity in scopolamine-induced C57BL mouse model assessed as prevention of blurred borders in cortical cells of hippocampal region at 10 to 30 mg/kg, po administered for 7 days followed by scopolamine administration by hematoxylin and eosin staining based analysis. The settings on record: dose 10-30 mg/kg. The class given is functional, organism-based.

Data set [16] can be described thus: Acute toxicity in C57BL mouse assessed as liver damage upto 2000 mg/kg, po administered as single dose and measured after 2 weeks by hematoxylin and eosin staining based analysis. In kind it is organism-based. Particulars: in vivo, 336 h.
Data set [17] deals with Mus musculus. The data set can be described thus: Antialzheimer activity in scopolamine-induced C57BL mouse model assessed as increase in crossing frequency in platform area at 30 mg/kg, po administered for 7 days followed by scopolamine administration and measured after 5 days by Morris water maze test. Particulars: time 12.0 day. In kind it is functional, organism-based.

Data set [18] has as its system PC-12. The data set can be described thus: Antioxidant activity in H2O2-induced rat PC12 cells assessed as reduction in intracellular ROS level incubated for 1 hr followed by H2O2 addition and measured after 5 hrs by DCFH-DA staining based laser confocal microscopy. In kind it is functional, cell-based. Particulars: dose 10-20 µM, time 6.0 hrs.
The nature of data set [19]: Acute toxicity in C57BL mouse assessed as spleen damage upto 2000 mg/kg, po administered as single dose and measured after 2 weeks by hematoxylin and eosin staining based analysis. The settings on record: in vivo, 336 h. The class given is organism-based.
A short description of data set [20]: Acute toxicity in C57BL mouse assessed as kidney damage upto 2000 mg/kg, po administered as single dose and measured after 2 weeks by hematoxylin and eosin staining based analysis. The class given is organism-based. Particulars: in vivo, 336 h.
Data set [21] relates to BV-2. As to the kind of experiment: Anti-neuroinflammatory activity against LPS-induced mouse BV-2 cells assessed as decrease in COX-2 protein expression pre-incubated for 1 hr followed by LPS addition and measured after 24 hrs by Western blotting analysis. The class given is functional, cell-based. The settings on record: dose 1-10 µM.
Data set [22] concerns Mus musculus. As to the kind of experiment: Antialzheimer activity in scopolamine-induced C57BL mouse model assessed as decrease in escape latency at 10 to 30 mg/kg, po administered for 7 days followed by scopolamine administration and measured after 4 days by Morris water maze test. The settings on record: dose 10-30 mg/kg, time 11.0 day. In kind it is functional, organism-based.

In data set [23] the test system is Mus musculus. The data set can be described thus: Antialzheimer activity in scopolamine-induced C57BL mouse model assessed as increase in residence time in platform area at 30 mg/kg, po administered for 7 days followed by scopolamine administration and measured after 5 days by Morris water maze test. In kind it is functional, organism-based. The settings on record: time 12.0 day.

A short description of data set [24]: Metal chelating activity assessed as Cu2+-compound complex formation by measuring red shift in maximum absorption wavelength at 50 uM incubated for 1 hr in presence of CuCl2 by UV-Visible spectrophotometry.
In data set [25] the test system is BV-2. As to the kind of experiment: Anti-neuroinflammatory activity against LPS-induced mouse BV-2 cells assessed as inhibition of IL-1beta production pre-incubated for 1 hr followed by LPS addition and measured after 24 hrs by ELISA. The class given is functional, cell-based.
Data set [26] in a line: Hepatotoxicity in mouse AML12 cells assessed as reduction in cell viability at 20 to 100 uM incubated for 24 hrs by MTT assay. The class given is toxicity, cell-based. The settings on record: aml12, 24 h, dose 20-100 µM.
Data set [27] relates to PC-12. The data set can be described thus: Neuroprotective activity against H2O2-induced cell death in rat PC12 cells assessed as increase in survival rate pre-incubated for 3 hrs followed by H2O2 addition and measured after 24 hrs by MTT assay. The class given is functional, cell-based. Particulars: dose 1-20 µM, time 27.0 hrs.
Data set [28] can be described thus: Toxicity in C57BL mouse assessed as change in body weight at 10 to 30 mg/kg, po measured after 7 days. The class given is organism-based. The settings on record: in vivo, 168 h, dose 10-30 mg/kg, time 7 day.
A short description of data set [29]: in vitro. The settings on record: PAMPA, pH 7.4.
Description: Permeability of the compound at 30 to 50 uM at pH 7.4 by PAMPA-BBB assay
The subject of data set [30] is PC-12. As to the kind of experiment: Cytotoxicity against rat PC12 cells assessed as reduction in cell viability at 20 to 50 uM incubated for 24 hrs by MTT assay. In kind it is toxicity, cell-based. The settings on record: pc-12, 24 h, dose 20-50 µM.
Data set [31] in a line: Metal chelating activity assessed as Zn2+-compound complex formation by measuring blue shift in maximum absorption wavelength at 50 uM incubated for 1 hr in presence of ZnCl2 by UV-Visible spectrophotometry.
Data set [32] addresses T1, Acetylcholinesterase. As to the kind of experiment: Inhibition of electric eel AChE.

Activity calls are given as the source filed them. The rule behind the calls is not given here. Where only a bound is given, the exact number is not on record here.

T1 sequence (O42275 whole entry): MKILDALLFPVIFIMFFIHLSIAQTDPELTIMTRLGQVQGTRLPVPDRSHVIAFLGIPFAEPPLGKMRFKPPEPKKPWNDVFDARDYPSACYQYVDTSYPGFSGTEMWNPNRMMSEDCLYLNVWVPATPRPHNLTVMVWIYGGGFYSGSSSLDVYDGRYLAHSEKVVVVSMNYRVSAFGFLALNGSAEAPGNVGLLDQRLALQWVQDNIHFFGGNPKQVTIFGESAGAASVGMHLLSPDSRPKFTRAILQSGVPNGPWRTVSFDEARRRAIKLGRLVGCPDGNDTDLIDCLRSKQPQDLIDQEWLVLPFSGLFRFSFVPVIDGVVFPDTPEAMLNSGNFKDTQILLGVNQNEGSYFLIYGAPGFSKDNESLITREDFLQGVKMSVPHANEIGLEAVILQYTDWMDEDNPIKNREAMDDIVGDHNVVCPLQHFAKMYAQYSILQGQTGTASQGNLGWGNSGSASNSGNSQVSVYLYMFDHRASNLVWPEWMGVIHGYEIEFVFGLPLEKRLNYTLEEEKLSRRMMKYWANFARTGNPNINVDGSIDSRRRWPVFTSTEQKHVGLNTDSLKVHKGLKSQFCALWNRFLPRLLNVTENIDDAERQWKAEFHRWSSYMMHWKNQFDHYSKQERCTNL
Cholinesterase, sequence (P81908 whole entry): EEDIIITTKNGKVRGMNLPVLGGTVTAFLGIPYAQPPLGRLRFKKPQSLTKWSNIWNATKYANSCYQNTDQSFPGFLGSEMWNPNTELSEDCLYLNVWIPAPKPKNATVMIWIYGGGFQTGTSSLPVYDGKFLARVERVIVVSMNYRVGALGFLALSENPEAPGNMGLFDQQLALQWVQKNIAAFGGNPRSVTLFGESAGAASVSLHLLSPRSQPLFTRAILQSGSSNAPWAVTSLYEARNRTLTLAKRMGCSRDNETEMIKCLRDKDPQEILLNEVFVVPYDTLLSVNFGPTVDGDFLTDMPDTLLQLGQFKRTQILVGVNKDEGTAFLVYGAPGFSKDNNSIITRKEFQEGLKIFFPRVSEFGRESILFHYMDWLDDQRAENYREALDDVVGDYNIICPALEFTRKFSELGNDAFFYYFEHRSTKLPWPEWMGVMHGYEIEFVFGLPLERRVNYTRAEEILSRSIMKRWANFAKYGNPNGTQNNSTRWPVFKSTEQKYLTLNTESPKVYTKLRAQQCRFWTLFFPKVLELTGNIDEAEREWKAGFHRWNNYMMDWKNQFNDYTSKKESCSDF
Acetylcholinesterase (Electrophorus electricus), sequence (O42275 24-633 limits assumed): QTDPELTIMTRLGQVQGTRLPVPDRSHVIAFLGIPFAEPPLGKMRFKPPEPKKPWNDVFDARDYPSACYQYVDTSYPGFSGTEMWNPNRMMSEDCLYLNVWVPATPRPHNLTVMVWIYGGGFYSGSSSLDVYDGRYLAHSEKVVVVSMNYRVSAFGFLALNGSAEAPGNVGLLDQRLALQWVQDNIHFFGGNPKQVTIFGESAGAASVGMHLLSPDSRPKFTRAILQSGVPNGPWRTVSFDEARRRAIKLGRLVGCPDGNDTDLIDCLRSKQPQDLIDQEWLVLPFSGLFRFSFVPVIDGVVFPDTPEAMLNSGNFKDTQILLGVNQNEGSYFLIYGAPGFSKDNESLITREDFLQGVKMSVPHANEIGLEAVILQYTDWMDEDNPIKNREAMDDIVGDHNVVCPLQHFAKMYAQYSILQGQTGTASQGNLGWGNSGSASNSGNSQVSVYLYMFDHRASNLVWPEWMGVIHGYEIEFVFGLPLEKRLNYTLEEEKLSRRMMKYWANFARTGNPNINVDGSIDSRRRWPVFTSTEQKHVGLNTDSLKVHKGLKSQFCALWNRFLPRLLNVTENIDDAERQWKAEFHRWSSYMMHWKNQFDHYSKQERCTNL

As for `O=C(CNS(=O)(=O)c1ccccc1C(F)(F)F)Nc1ccc2c(=O)n3c(nc2c1)CCC3`, in [1], the inhibition result is “Dose-Dependent Effect”. Further, the Activity entry is “Dose-Dependent Effect” in data set [2]; “Non-Toxic” in [3]; “Non-Toxic” in data set [4]; “Non-Toxic” in data set [7]; “Dose-Dependent Effect” in data set [8] (time 25.0 hrs); “Dose-Dependent Effect” in [10] (time 25.0 hrs). Further, the Activity result in data set [12] is “Non-Toxic”; in data set [16] it was “Non-Toxic”; in [18], “Dose-Dependent Effect”; in data set [19] it was “Non-Toxic”; in data set [20], “Non-Toxic”; in data set [21], “Dose-Dependent Effect”. Moreover, the Activity entry was “Dose-Dependent Effect” in data set [25] (time 25.0 hrs); “Non-Toxic” in data set [26]; “Dose-Dependent Effect” in data set [27]; “Non-Toxic” in data set [28]; “Non-Toxic” in [30]. The IC50 (in general, the concentration that inhibits the measured activity by half) in data set [5] is 0.24 µM; in data set [8], 8.62 µM; in [9] it was more than 50 µM; in [10], 3.34 µM; in [25] it was 1.69 µM. The outcome in [6], in [13], in data set [15], in data set [17], in [22] and in [23] was Active. For the same compound, the result in data set [24] and in data set [31] was Active. Besides, in data set [11], the result was inactive. In addition, in data set [14], the Ki (usually the equilibrium dissociation constant of an inhibitor or competing ligand from its target) came out at 0.24 µM. In addition, the Papp (in general, the rate of passage across a membrane or cell layer, normalised by area and donor concentration) at 50 µM in data set [29] stood at 10.5 ×10⁻⁶ cm/s.

Turning to `O=c1c2ccccc2nc2n1CCC2` [DEOXYVASICINONE], the Activity result in data set [3] and in data set [26] was “Non-Toxic” each time. In addition, half-maximal inhibition in data set [32] (IC50) required 82.5 µM.

(Values after ChEMBL document CHEMBL5528012, “Discovery of novel deoxyvasicinone derivatives with benzenesulfonamide substituents as multifunctional agents against Alzheimer's disease” (Eur J Med Chem, 2024).)
